Laboratory results published in patent US7682635B2, “Aqueous dispersions of nanometric or micrometric particles for encapsulating chemical compounds” (Centre National de la Recherche Scientifique (C.N.R.S.), priority 2002, dated 2010).

Assay: Encapsulation of benzophenone in particles (ultracentrifugation, spectrophotometry of supernatant at 261 nm)
Format: physicochemical
Method: An aqueous solution of polymer P2 as defined in Example 1 (0.44 g/l) was produced, to which benzophenone was added with a molar ratio of benzophenone added: cyclodextrin equal to 1:1. This solution was left under agitation for 24 hours.
A composition of particles was prepared by mixture of 1 ml of the solution thus obtained with 1 ml of a solution of modified dextran DM3 as defined in Example 1 (0.44 g/l).
After mixture, the particles produced were ultracentrifuged (30 minutes at 40000 r.p.m. in a Beckman L7-55 centrifuge). The non-encapsulated benzophenone present in the supernatant was dosaged by spectrophotometry (absorption line at 261 nm).
The experiment was repeated using a molar ratio of benzophenone added: cyclodextrin equal to 1:3 for the solution of polymer P2.
The experiment was also repeated using modified dextran DM4 instead of DM3.
Finally, the experiment was also repeated using a molar ratio of benzophenone added cyclodextrin equal to 1:3 for the solution of polymer P2 and also replacing the modified dextran DM3 by DM4.

O=C(c1ccccc1)c1ccccc1 [benzophenone]
benzophenone initially introduced found in the supernatant (4 cases: P2 with DM3 or DM4, benzophenone:cyclodextrin 1:1 or 1:3, after ultracentrifugation): less than 70%
benzophenone content of particles (molar ratio benzophenone:cyclodextrin 1:1 in the initial solution of P2): 1 % by mass
benzophenone content of particles (molar ratio benzophenone:cyclodextrin 1:3): 3 % by mass
